The source of these data is US20090012118A1, “Kynurenic Acid Amide Derivatives as Nr2b Receptor Antagoni” (priority 2004, published 2009).

One experiment has as its target T1, NR1a/NR2B NMDA receptor (Rattus norvegicus, UniProt P35439+Q00960).
T1 construct: expressed in transfected cells
Description: Functional NMDA antagonism, fluorimetric intracellular calcium measurement on HEK293 cells expressing NR1a/NR2B. Format: cell-based. The procedure:
Compounds were tested for their inhibitory action on NMDA evoked cytosolic calcium elevations in fluorescent calcium measurements. Studies were performed 48-72 h after addition of the inducing agent. Ketamine (500 μM) was also present during the induction in order to prevent cytotoxicity.
Since NMDA receptors are known to be permeable to calcium ions upon excitation, the extent of NMDA receptor activation, and its inhibition by functional antagonists can be characterized by measuring the rise in the intracellular calcium concentration following agonist (NMDA) application onto the cells.
The intracellular calcium measurements are carried out on HEK293 cells expressing NR1a and NR2B or NR2A NMDA receptor subunits.
(§1) Loading is stopped by washing twice with the solution used also during the measurement (140 mM NaCl, 5 mM KCl, 2 mM CaCl2, 5 mM HEPES [4-(2-hydroxyethyl)-1-piperazineethane-sulfonic acid], 5 mM HEPES-Na, 20 mM glucose, 10 μM glycine, pH=7.4). Then the test compound dissolved in the above solution (90 μl/well) is added. Intracellular calcium measurements are carried out with a plate reader fluorimeter. A rise in Fluo-4-fluorescence that reflects the intracellular calcium concentration is induced by application of 200 μM NMDA. Inhibitory potency of the test compound is assessed by measuring the reduction in the calcium elevation in the presence of different concentrations of the compound.
(§2) Inhibitory potency of a compound at a single concentration point is expressed as percent inhibition of the control NMDA response. For NR1a/NR2B expressing cells concentration-inhibition curves are produced. Sigmoidal concentration-inhibition curves are fitted over the data and IC50 values are defined as the concentration that produces half of the maximal inhibition that could be achieved with the compound. Mean IC50 values are derived from at least three independent experiments. For NR1-3/NR2A expressing cells antagonism of NMDA induced rise in intracellular calcium concentration by compounds of the present invention and reference compounds was tested at 10 and 15 microM concentration, respectively.

Experiment [1] addresses T2, NR1-3/NR2A NMDA receptor (Homo sapiens, UniProt Q05586+Q12879).
T2 construct: expressed in transfected cells
Kind of experiment: Functional NMDA antagonism, fluorimetric intracellular calcium measurement on HEK293 cells expressing NR1-3/NR2A. The class given is cell-based. Further details: NR1-3/NR2A % inhibition: dose or concentration left out as unconfirmed. As to conditions: for inhibition at 10 µM: reference compounds; for inhibition at 15 µM: NMDA evoked calcium rise. Here is the method:
(§3) (2003)]. […] Compounds were tested for their inhibitory action on NMDA evoked cytosolic calcium elevations in fluorescent calcium measurements. Studies were performed 48-72 h after addition of the inducing agent. Ketamine (500 μM) was also present during the induction in order to prevent cytotoxicity.
(§4) Since NMDA receptors are known to be permeable to calcium ions upon excitation, the extent of NMDA receptor activation, and its inhibition by functional antagonists can be characterized by measuring the rise in the intracellular calcium concentration following agonist (NMDA) application onto the cells. Since there is very high sequence homology between rat and human NMDA receptors (99, 95, 97% for NR1, NR2A, and NR2B subunits, respectively), it is believed that there is little, if any, difference in their pharmacological sensitivity.
(§5) The intracellular calcium measurements are carried out on HEK293 cells expressing NR1a and NR2B or NR2A NMDA receptor subunits. The cells are plated onto standard 96-well microplates and the cultures are maintained in an atmosphere of 95% air −5% CO2 at 37° C. until testing.
as §1, with “The cells are loaded with a fluorescent Ca^2+-sensitive dye, Fluo-4/AM (2-2.5 μM) prior to testing. Loading” for “Loading”
as §2

For experiment [2], the system named is NMRI mice. Description: Mouse formalin test (second phase, licking/biting time). The class given is in vivo. As to conditions: 15 min before formalin, licking time 20-25 min after formalin; for ED50: Mus musculus, po; for ED50 in mouse formalin test: p.o. The procedure:
Injection of diluted formalin into the hind paw of rats or mice is known to elicit a biphasic pain-related behavior measured as time spent by licking/biting of the injured paw. The second phase is generally defined as pain related events detected in the 15-60 min. time interval after formalin injection. It is known that NMDA receptors are involved in the second phase of response to formalin injection and this behavioral response is sensitive to blockade of NMDA receptors [Dickenson, A. and Besson J.-M. (Editors): Chapter 1, pp. 6-7: Animal models of Analgesia; and Chapter 8, pp. 180-183: Mechanism of Central Hypersensitivity: Excitatory Amino Acid Mechanisms and Their Control—In Pharmacology of Pain. Springer-Verlag (Berlin) 1997.] Therefore, we used the second phase of formalin test to characterize the efficacy of compounds in vivo. Inhibition of the second phase of response is considered to indicate an analgesic effect against chemically-induced persistent pain [Hunskaar, S., et al.: Formalin Test in Mice, a Useful Technique for Evaluating Mild Analgesics, Journal of Neuroscience Methods, 14 (1985) 69-76.]
Male albino NMRI mice (20-25 g) were used. Prior to the experiment any solid food was withdrawn for approx. 16 hours but the animals had free access to 20% glucose solution. The animals were allowed 1 hour acclimatization period in a glass cylinder (cc. 15 cm in diameter), then moved to an identical cylinder with a mirror placed behind to facilitate observation. The test substances were suspended in 5% tween-80 (10 ml per kg body weight). and administered orally by gavage 15 min before the formalin injection (20 μl of 1% formalin in 0.9% saline injected subcutaneously into the dorsal surface of the right hind paw). The time spent by licking and biting of the injected paw was measured from 20 to 25 min. after the formalin injection.

Experiment [3] has as its system NMRI mice. The experiment is described as above. Format: in vivo.
For experiment [4], the target named is T3, NR1-3/NR2A NMDA receptor (Homo sapiens, UniProt Q12879).
T3 construct: expressed in transfected cells
Kind of experiment: Functional NMDA antagonism, fluorimetric intracellular calcium measurement on HEK293 cells expressing NR1-3/NR2A. The class given is cell-based. Further details: NR1-3/NR2A % inhibition: dose or concentration left out as unconfirmed. As to conditions: reference compounds. Here is the method: as §3, §4, §5
as §1, with “The cells are loaded with a fluorescent Ca^2+-sensitive dye, Fluo-4/AM (2-2.5 μM) prior to testing. Loading” for “Loading”
as §2

[5] abbreviates: HEK293 cells expressing NR1a/NR2B, reference compounds, read-out: NR1a/NR2B IC50.
Setting [6] is: HEK293 cells expressing NR1a/NR2B, 200 μM NMDA evoked calcium rise, compounds of the invention, read-out: NR1a/NR2B IC50.

Like-named read-outs stand apart in the source and are kept apart here.

T1 sequence (Q00960 27-1482, other chains not shown): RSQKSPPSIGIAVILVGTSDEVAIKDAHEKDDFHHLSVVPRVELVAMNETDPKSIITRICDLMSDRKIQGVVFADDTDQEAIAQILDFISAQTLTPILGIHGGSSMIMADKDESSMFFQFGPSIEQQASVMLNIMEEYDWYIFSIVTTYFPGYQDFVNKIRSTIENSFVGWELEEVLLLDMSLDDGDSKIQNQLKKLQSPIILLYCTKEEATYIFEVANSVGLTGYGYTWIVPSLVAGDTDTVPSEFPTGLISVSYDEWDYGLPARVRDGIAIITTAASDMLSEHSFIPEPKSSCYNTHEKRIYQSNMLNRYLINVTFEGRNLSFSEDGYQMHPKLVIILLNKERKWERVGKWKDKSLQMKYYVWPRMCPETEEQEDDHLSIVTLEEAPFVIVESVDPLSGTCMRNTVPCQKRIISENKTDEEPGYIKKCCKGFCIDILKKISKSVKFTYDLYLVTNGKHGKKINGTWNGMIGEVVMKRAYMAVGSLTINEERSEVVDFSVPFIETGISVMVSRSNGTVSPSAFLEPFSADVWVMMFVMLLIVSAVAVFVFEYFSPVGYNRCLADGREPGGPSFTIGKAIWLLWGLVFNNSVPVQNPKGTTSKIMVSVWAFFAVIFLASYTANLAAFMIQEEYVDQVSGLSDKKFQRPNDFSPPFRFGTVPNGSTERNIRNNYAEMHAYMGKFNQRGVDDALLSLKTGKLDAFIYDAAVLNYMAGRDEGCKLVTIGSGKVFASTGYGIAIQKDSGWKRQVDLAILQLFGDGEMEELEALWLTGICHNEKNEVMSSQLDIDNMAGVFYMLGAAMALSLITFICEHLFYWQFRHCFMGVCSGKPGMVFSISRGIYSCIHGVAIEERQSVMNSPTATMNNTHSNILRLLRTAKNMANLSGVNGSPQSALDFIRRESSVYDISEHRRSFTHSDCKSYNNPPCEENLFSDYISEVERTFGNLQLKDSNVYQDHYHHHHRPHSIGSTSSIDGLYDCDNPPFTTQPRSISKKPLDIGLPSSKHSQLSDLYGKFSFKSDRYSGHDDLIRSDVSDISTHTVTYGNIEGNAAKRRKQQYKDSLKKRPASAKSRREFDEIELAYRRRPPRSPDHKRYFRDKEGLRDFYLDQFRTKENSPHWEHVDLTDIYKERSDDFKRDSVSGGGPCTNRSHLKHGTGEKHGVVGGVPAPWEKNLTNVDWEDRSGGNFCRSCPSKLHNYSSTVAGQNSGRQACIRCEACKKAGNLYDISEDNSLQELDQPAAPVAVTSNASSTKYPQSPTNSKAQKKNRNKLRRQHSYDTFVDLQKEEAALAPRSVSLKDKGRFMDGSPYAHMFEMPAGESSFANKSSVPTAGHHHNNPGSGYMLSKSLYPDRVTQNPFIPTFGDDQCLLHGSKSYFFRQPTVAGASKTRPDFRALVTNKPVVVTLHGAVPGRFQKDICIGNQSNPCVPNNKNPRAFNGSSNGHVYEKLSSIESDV
T2 sequence (Q12879 23-1464, other chains not shown): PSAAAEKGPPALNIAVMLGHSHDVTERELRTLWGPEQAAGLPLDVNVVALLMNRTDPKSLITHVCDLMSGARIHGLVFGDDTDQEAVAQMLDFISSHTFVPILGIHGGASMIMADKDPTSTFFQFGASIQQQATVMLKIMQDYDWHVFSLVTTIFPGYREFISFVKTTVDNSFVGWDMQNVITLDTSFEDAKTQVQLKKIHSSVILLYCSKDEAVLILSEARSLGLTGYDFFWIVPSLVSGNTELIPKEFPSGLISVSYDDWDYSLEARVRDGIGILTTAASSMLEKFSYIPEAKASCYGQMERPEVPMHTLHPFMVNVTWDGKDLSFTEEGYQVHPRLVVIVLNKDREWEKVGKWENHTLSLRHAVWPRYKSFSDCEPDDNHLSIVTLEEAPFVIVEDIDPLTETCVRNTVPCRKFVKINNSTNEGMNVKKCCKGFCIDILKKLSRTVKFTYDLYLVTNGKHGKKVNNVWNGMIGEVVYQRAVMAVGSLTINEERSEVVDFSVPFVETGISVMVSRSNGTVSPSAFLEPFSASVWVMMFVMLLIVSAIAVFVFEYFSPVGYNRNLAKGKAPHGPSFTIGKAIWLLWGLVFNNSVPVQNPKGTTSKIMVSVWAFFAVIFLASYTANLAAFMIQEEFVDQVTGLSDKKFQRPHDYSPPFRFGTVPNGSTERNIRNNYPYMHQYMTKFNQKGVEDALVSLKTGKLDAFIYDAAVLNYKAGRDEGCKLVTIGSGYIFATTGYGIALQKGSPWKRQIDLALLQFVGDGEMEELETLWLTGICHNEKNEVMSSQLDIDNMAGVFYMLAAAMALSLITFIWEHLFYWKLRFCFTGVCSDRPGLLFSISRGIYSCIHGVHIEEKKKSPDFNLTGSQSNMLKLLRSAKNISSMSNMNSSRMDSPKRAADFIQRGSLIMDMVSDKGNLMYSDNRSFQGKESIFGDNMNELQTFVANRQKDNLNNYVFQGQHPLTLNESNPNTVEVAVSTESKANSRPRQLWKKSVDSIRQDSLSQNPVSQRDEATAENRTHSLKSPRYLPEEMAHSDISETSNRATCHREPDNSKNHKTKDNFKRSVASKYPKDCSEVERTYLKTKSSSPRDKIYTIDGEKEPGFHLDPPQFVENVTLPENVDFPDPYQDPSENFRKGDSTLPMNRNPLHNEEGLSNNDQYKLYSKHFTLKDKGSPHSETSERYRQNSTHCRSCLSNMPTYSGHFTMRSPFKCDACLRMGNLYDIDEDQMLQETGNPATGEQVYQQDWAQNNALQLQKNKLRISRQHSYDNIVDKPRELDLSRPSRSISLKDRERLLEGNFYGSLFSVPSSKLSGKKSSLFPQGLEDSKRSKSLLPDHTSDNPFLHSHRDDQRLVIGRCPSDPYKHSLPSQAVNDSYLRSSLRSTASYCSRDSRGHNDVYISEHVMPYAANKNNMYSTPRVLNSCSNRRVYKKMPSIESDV
T3 sequence (Q12879 23-1464, other chains not shown): as above

As for `O=c1[nH]c2ccc([S+]([O-])CCN3CCC(Cc4ccc(F)cc4)CC3)cc2o1` (centres unmarked) [CI-1041, 6-{2-[4-(4-fluoro-benzyl)-piperidin-1-yl]-ethanesulfinyl}-3H-benzooxazol-2-one, reference compound], the IC50 on NR1a/NR2B NMDA receptor amounted to 8.4 nM. The inhibition at 10 µM on NR1-3/NR2A NMDA receptor [1] turned out to be 21%. In the experiment with NMRI mice [2], this compound came in with an ED50 of 2.4 mg/kg.
For the compound `C[C@@H]([C@@H](O)c1ccc(O)cc1)N1CCC(O)(c2ccccc2)CC1` [CP 101,606, (1S,2S)-1-(4-hydroxyphenyl)-2-(4-hydroxy-4-phenylpiperidine-1-yl)-1-propanol, reference compound], on NR1-3/NR2A NMDA receptor [1], the inhibition at 10 µM amounted to 2.5%. Further, the ED50 in the experiment on NMRI mice [2] and with NMRI mice [3] (sc) was above 20 mg/kg throughout.
For `Cc1ccc(CC2(O)CCN(CCOc3ccc(O)cc3)CC2)cc1` [Co-101244, 1-[2-(4-hydroxyphenoxy)ethyl]-4-hydroxy-4-(4-methylbenzyl)piperidine, reference compound], the IC50 on NR1a/NR2B NMDA receptor (setting [5]) amounted to 4.8 nM. On NR1-3/NR2A NMDA receptor [1], the inhibition at 10 µM was -8.7%. In addition, in the experiment with NMRI mice [2], the “ED50 in mouse formalin test” value is “inactive”. The compound also displayed an ED50 in the experiment with NMRI mice [3] (ip) of 5.9 mg/kg.
In turn, `Oc1ccc(OCCN2CCC(Cc3ccc(F)cc3)CC2)cc1` [Co-111103, 1-[2-(4-hydroxyphenoxy)ethyl]-4-(4-fluorobenzyl)piperidine, reference compound] showed an ED50 with NMRI mice [2] above 20 mg/kg.
For the compound `O=C(CCN1CCC(Cc2ccc(F)cc2)CC1)c1ccc2[nH]c(=O)oc2c1` [EMD 95885, reference compound], at NR1a/NR2B NMDA receptor (setting [5]), the IC50 came out at 48 nM. In addition, the NR1-3/NR2A % inhibition on NR1-3/NR2A NMDA receptor [4] is given as 0.1%. Also, in the experiment on NMRI mice [2], the “ED50 in mouse formalin test” value was determined as 3.7 mg/kg.
Regarding `O=C(c1cc(=O)c2cc(O)ccc2[nH]1)N1CCC(Cc2ccc(F)cc2)CC1` [Example 1, 2-[4-(4-Fluoro-benzyl)-piperidine-1-carbonyl]-6-hydroxy-1H-quinolin-4-one], on NR1a/NR2B NMDA receptor (setting [6]), the IC50 was 4 nM. On NR1-3/NR2A NMDA receptor [1], the inhibition at 15 µM was -0.9%. Also, in the experiment on NMRI mice [2], the ED50 was determined as 9.5 mg/kg.
With `O=C(c1cc(=O)c2cc(O)ccc2[nH]1)N1CCC(Cc2ccccc2)CC1` [Example 2, 2-(4-Benzyl-piperidine-1-carbonyl)-6-hydroxy-1H-quinolin-4-one], the IC50 at NR1a/NR2B NMDA receptor (setting [6]) was 3.7 nM. For the same compound, the inhibition at 15 µM at NR1-3/NR2A NMDA receptor [1] was found to be 7%. In addition, in the experiment on NMRI mice [2], the ED50 was above 20 mg/kg.
Turning to `Cc1ccc(CC2CCN(C(=O)c3cc(=O)c4cc(O)ccc4[nH]3)CC2)cc1` [Example 3, 6-Hydroxy-2-[4-(4-methyl-benzyl)-piperidine-1-carbonyl]-1H-quinolin-4-one], on NR1a/NR2B NMDA receptor (setting [6]), the IC50 came out at 3.8 nM. Besides, the inhibition at 15 µM on NR1-3/NR2A NMDA receptor [1] is -2.4%. In the experiment on NMRI mice [2], this compound yielded an ED50 of 8.9 mg/kg.
In the case of `O=C(c1cc(=O)c2cc(O)ccc2[nH]1)N1CCC(Cc2ccc(Cl)cc2)CC1` [Example 4, 2-[4-(4-Chloro-benzyl)-piperidine-1-carbonyl]-6-hydroxy-1H-quinolin-4-one], the IC50 at NR1a/NR2B NMDA receptor (setting [6]) was determined as 1.9 nM. For the same compound, at NR1-3/NR2A NMDA receptor [1], the inhibition at 15 µM was -5.1%. Also, the 50% effective dose (ED50) in the experiment with NMRI mice [2] was above 20 mg/kg.
`O=C(c1cc(=O)c2cc(O)ccc2[nH]1)N1CCC(OCc2ccccc2)CC1` [Example 5, 2-(4-Benzyloxy-piperidine-1-carbonyl)-6-hydroxy-1H-quinolin-4-one]: the IC50 at NR1a/NR2B NMDA receptor (setting [6]) was 21.5 nM. Further, on NR1-3/NR2A NMDA receptor [1], the inhibition at 15 µM stood at 5.7%.
With `O=C(c1cc(=O)c2cc(O)ccc2[nH]1)N1CCC(COc2ccccc2)CC1` [Example 6, 6-Hydroxy-2-(4-Phenoxymethyl-piperidine-1-carbonyl)-1H-quinolin-4-one], on NR1a/NR2B NMDA receptor (setting [6]), the IC50 stood at 8.9 nM. Moreover, the inhibition at 15 µM on NR1-3/NR2A NMDA receptor [1] was 14%. The 50% effect level in the experiment with NMRI mice [2] (ED50) was put at a dose of 0.46 mg/kg.
The corresponding values for `O=C(c1cc(=O)c2cc(O)ccc2[nH]1)N1CCC(Oc2ccc(Cl)cc2)CC1` [Example 7] are 5.1 nM, 5.1% and above 20 mg/kg.
The corresponding values for `Cc1ccc(OC2CCN(C(=O)c3cc(=O)c4cc(O)ccc4[nH]3)CC2)cc1` [Example 8, 6-Hydroxy-2-(4-p-tolyloxy-piperidine-1-carbonyl)-1H-quinolin4-one] are 3.3 nM, -3.5% and 8.2 mg/kg.
On to `O=C(c1cc(=O)c2cc3[nH]c(=O)oc3cc2[nH]1)N1CCC(Cc2ccccc2)CC1` [Example 9, 6-(4-Benzyl-piperidine-1-carbonyl)-1,5-dihydro-oxazolo[4,5-g]quinoline-2,8-dione], for which, on NR1a/NR2B NMDA receptor (setting [6]), the IC50 amounted to 5.6 nM. Moreover, on NR1-3/NR2A NMDA receptor [1], the inhibition at 15 µM is -2.1%. This compound displayed an ED50 in the experiment on NMRI mice [2] above 20 mg/kg.
Regarding `O=C(c1cc(=O)c2cc(O)ccc2[nH]1)N1CCC(Oc2ccccc2)CC1` [Example 10, 6-Hydroxy-2-(4-phenoxy-piperidine-1-carbonyl)-1H-quinolin-4-one], the IC50 at NR1a/NR2B NMDA receptor (setting [6]) was 28 nM. Besides, at NR1-3/NR2A NMDA receptor [1], the inhibition at 15 µM is 0.2%.
In the case of `CC(CN1CCC(Cc2ccccc2)CC1)C(O)c1ccc(O)cc1` (stereo not drawn) [Ro 25.6981, R—(R*,S*)-1-(4-hydroxyphenyl)-2-methyl-3-[4-(phenylmethyl)piperidin-1-yl]-1-propanol, reference compound], at NR1a/NR2B NMDA receptor, the IC50 is 57 nM. Further, the inhibition at 10 µM at NR1-3/NR2A NMDA receptor [1] is 1%. Also, the “ED50 in mouse formalin test” value in the experiment with NMRI mice [2] is “inactive”. In the experiment on NMRI mice [3] (ip), the ED50 came to 5.1 mg/kg.
As to `CC(C(O)c1ccc(O)cc1)N1CCC(Cc2ccccc2)CC1` (stereo not drawn) [ifenprodil, erythro-2-(4-benzylpiperidino)-1-(4-hydroxyphenyl)-1-propanol, reference compound], the inhibition at 10 µM on NR1-3/NR2A NMDA receptor [1] was -2.7%.
